Target: T1, ALDH1A3 (Homo sapiens, UniProt P47895)
T1 sequence (P47895 2-512): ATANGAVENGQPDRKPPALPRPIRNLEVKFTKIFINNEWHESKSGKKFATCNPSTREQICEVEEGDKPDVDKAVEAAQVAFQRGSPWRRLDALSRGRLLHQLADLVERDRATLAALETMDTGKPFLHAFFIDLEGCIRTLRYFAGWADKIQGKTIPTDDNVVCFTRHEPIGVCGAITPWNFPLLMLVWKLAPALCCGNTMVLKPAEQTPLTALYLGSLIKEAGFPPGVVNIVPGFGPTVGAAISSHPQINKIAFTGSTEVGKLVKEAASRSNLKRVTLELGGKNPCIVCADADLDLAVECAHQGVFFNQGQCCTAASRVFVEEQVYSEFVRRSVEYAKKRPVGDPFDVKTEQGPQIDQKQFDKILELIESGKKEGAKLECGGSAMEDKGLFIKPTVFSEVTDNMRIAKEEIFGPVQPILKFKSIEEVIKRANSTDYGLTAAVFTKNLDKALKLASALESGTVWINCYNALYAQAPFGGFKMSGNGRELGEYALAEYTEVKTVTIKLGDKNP
Assay: Aldefluor assay in A375 cells; also recombinant human ALDH1a3 in crude bacterial lysate (resazurin/diaphorase-coupled)
Format: cell-based

## CCc1cnccc1C(=O)Nc1cc2c(cc1F)NC(=O)CC2 [KOTX1]
  IC50: 5.1 nM

From publication PMC9895451, “Genetic and pharmacologic inhibition of ALDH1A3 as a treatment of β-cell failure” (Nature Communications, 2023)
